From PubChem BioAssay (NCI)
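Values below derive from 48-hour exposures of cells grown in 96-well plates, with endpoints linearly interpolated between the two concentrations bracketing the appropriate inhibition level. TGI: concentration producing complete growth inhibition.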

How the values were obtained:
Test in all cases: DTP human tumour cell line panel, 48 h
OVCAR-8 ovarian = system: OVCAR-8 ovarian
HCC-2998 colon = system: HCC-2998 colon
SF-295 CNS = system: SF-295 CNS
CCRF-CEM leukemia = system: CCRF-CEM leukemia
MDA-N = system: MDA-N
RXF 393 renal = system: RXF 393 renal
SK-MEL-2 melanoma = system: SK-MEL-2 melanoma
DU-145 prostate = system: DU-145 prostate
HCT-116 colon = system: HCT-116 colon
BT-549 breast = system: BT-549 breast
MDA-MB-231 breast = system: MDA-MB-231 breast
MCF7 breast = system: MCF7 breast
HOP-18 NSCLC = system: HOP-18 NSCLC
KM12 colon = system: KM12 colon
XF 498 CNS = system: XF 498 CNS
OVCAR-5 ovarian = system: OVCAR-5 ovarian
786-0 renal = system: 786-0 renal
UACC-62 melanoma = system: UACC-62 melanoma
U251 CNS = system: U251 CNS
RPMI-8226 leukemia = system: RPMI-8226 leukemia
CAKI-1 renal = system: CAKI-1 renal
NCI-H226 lung = system: NCI-H226 lung
M14 melanoma = system: M14 melanoma
NCI-H23 lung = system: NCI-H23 lung
UO-31 renal = system: UO-31 renal
EKVX NSCLC = system: EKVX NSCLC
MALME-3M melanoma = system: MALME-3M melanoma
SNB-75 CNS = system: SNB-75 CNS
SK-MEL-5 melanoma = system: SK-MEL-5 melanoma
SK-MEL-28 melanoma = system: SK-MEL-28 melanoma
HL-60(TB) leukemia = system: HL-60(TB) leukemia
HOP-62 NSCLC = system: HOP-62 NSCLC
SF-268 CNS = system: SF-268 CNS
SNB-19 CNS = system: SNB-19 CNS
SF-539 CNS = system: SF-539 CNS
OVCAR-3 ovarian = system: OVCAR-3 ovarian
TK-10 renal = system: TK-10 renal
LOX IMVI melanoma = system: LOX IMVI melanoma
HS 578T breast = system: HS 578T breast
HCT-15 colon = system: HCT-15 colon
KM20L2 colon = system: KM20L2 colon
COLO 205 colon = system: COLO 205 colon
PC-3 prostate = system: PC-3 prostate
SK-OV-3 ovarian = system: SK-OV-3 ovarian
OVCAR-4 ovarian = system: OVCAR-4 ovarian
T-47D breast = system: T-47D breast
A498 renal = system: A498 renal
K-562 leukemia = system: K-562 leukemia
NCI-H522 lung = system: NCI-H522 lung
SW-620 colon = system: SW-620 colon
UACC-257 melanoma = system: UACC-257 melanoma
NCI-H460 lung = system: NCI-H460 lung
SN12C renal = system: SN12C renal
SNB-78 CNS = system: SNB-78 CNS
SR leukemia = system: SR leukemia
DMS 273 small cell lung = system: DMS 273 small cell lung
IGROV1 ovarian = system: IGROV1 ovarian
MDA-MB-435 = system: MDA-MB-435
MOLT-4 leukemia = system: MOLT-4 leukemia
HT29 colon = system: HT29 colon
NCI/ADR-RES ovarian = system: NCI/ADR-RES ovarian
A549 NSCLC = system: A549 NSCLC
HOP-92 NSCLC = system: HOP-92 NSCLC
ACHN renal = system: ACHN renal
DLD-1 colon = system: DLD-1 colon
M19-MEL melanoma = system: M19-MEL melanoma

`O=C1/C(=C/c2ccc(O)c(O)c2)CCC/C1=C\c1ccc(O)c(O)c1` showed a TGI (OVCAR-8 ovarian) of 4.42 µM, a TGI (HCC-2998 colon) of 11.5 µM and a TGI (SF-295 CNS) of 22.1 µM. For the same compound, the TGI (CCRF-CEM leukemia) was greater than 25.4 µM, the TGI (MDA-N) was 14.6 µM and the TGI (RXF 393 renal) was 9.5 µM. It also gave a TGI (SK-MEL-2 melanoma) of 13.1 µM, a TGI (DU-145 prostate) of 17.5 µM and a TGI (HCT-116 colon) of 7.17 µM. It also gave a TGI (BT-549 breast) greater than 33.9 µM, a TGI (MDA-MB-231 breast) of 37.4 µM and a TGI (MCF7 breast) greater than 48.2 µM. The TGI (HOP-18 NSCLC) was 10.4 µM, the TGI (KM12 colon) was 13.8 µM and the TGI (XF 498 CNS) was 9.93 µM. The TGI (OVCAR-5 ovarian) was 31.2 µM, the TGI (786-0 renal) was 15.5 µM and the TGI (UACC-62 melanoma) was 30.2 µM. It also gave a TGI (U251 CNS) of 15.7 µM, a TGI (RPMI-8226 leukemia) greater than 44.7 µM and a TGI (CAKI-1 renal) of 12.5 µM. For the same compound, the TGI (NCI-H226 lung) was 9.43 µM, the TGI (M14 melanoma) was 18.4 µM and the TGI (NCI-H23 lung) was 11.3 µM. It also gave a TGI (UO-31 renal) of 4.34 µM, a TGI (EKVX NSCLC) of 32.4 µM and a TGI (MALME-3M melanoma) of 7.05 µM. For the same compound, the TGI (SNB-75 CNS) was 12.9 µM, the TGI (SK-MEL-5 melanoma) was 3.81 µM and the TGI (SK-MEL-28 melanoma) was 11.8 µM. For the same compound, the TGI (HL-60(TB) leukemia) was greater than 27.9 µM, the TGI (HOP-62 NSCLC) was 14.5 µM and the TGI (SF-268 CNS) was 14.7 µM. The TGI (SNB-19 CNS) was 29.1 µM, the TGI (SF-539 CNS) was 8.99 µM and the TGI (OVCAR-3 ovarian) was 17.8 µM. For the same compound, the TGI (TK-10 renal) was 14.9 µM, the TGI (LOX IMVI melanoma) was 7.68 µM and the TGI (HS 578T breast) was greater than 39.9 µM. For the same compound, the TGI (HCT-15 colon) was 33.3 µM, the TGI (KM20L2 colon) was 23.8 µM and the TGI (COLO 205 colon) was greater than 64 µM. For the same compound, the TGI (PC-3 prostate) was 19 µM, the TGI (SK-OV-3 ovarian) was 20.7 µM and the TGI (OVCAR-4 ovarian) was 41.9 µM. It also gave a TGI (T-47D breast) greater than 48.1 µM, a TGI (A498 renal) of 21.1 µM and a TGI (K-562 leukemia) greater than 60.1 µM. The TGI (NCI-H522 lung) was 2.22 µM, the TGI (SW-620 colon) was 23.3 µM and the TGI (UACC-257 melanoma) was 17.4 µM. It also gave a TGI (NCI-H460 lung) of 20.1 µM, a TGI (SN12C renal) of 24.9 µM and a TGI (SNB-78 CNS) of 8.19 µM. It also gave a TGI (SR leukemia) greater than 89.8 µM, a TGI (DMS 273 small cell lung) of 7.2 µM and a TGI (IGROV1 ovarian) of 15.9 µM. For the same compound, the TGI (MDA-MB-435) was 16.7 µM, the TGI (MOLT-4 leukemia) was greater than 44 µM and the TGI (HT29 colon) was 21.2 µM. It also gave a TGI (NCI/ADR-RES ovarian) of 23.8 µM, a TGI (A549 NSCLC) greater than 50.2 µM and a TGI (HOP-92 NSCLC) of 13.2 µM. It also gave a TGI (ACHN renal) of 11 µM, a TGI (DLD-1 colon) of 7.22 µM and a TGI (M19-MEL melanoma) of 12.3 µM.
